# Like-named read-outs stand apart in the source and are kept apart here.
# What was measured:
# in vivo = conditions: in vivo
# Protocol: From these toxicity profiles the NOAEL and the LOAEL were determined. Exposure experiments were performed in Pyrex® beakers, each containing 200 mL of AFW at 15 °C and ten adult animals (> 5 mg wet weight, ww). Live/dead animals were counted after 24 h by gently prodding and observing movement of appendages. The pharmaceutical concentrations tested were in the range of 0.01 to 250 mg L^− 1. […] Concentrations where 100, 50 and 0% of the animals died were repeated in duplicate or triplicate.
# [1] = parameters: method as in Drugbank; conditions: ref Drugbank, cited from earlier work
# Thamnocephalus platyurus = conditions: ref Kim et al., 2009; cited from earlier work
SMILES,LC50 at 24 h (in vivo) [µg/mL],Water solubility [1],Water solubility ([1]; 26 °C),24 h- LC50 T. platyurus (Thamnocephalus platyurus) [µg/mL]
Cc1ccc(Cl)c(Nc2ccccc2C(=O)O)c1Cl [Meclofenamic acid],4.54,30 mg/L,–,–
CC(C)Cc1ccc(C(C)C(=O)O)cc1 (centres unmarked) [Ibuprofen],44,100000 mg/L,–,–
O=C(Nc1ccc(Cl)cc1)Nc1ccc(Cl)c(Cl)c1 [Triclocarban],> 10,–,10 (26 ºC) mg L^-1,–
NC(=O)N1c2ccccc2C=Cc2ccccc21 [Carbamazepine],> 112,–,–,>100
CNCCC=C1c2ccccc2CCc2ccccc21 [Nortriptyline],18.9,0.874 mg/L,–,–
CC(C)(Oc1ccc(CCNC(=O)c2ccc(Cl)cc2)cc1)C(=O)O [Bezafibrate],> 1,Insoluble,–,–
CN(C)CCC=C1c2ccccc2CCc2ccccc21 [Amitriptyline],41.8,–,–,–
CN(C)CCCN1c2ccccc2CCc2ccccc21 [Imipramine],3.85,50000 mg/L,–,–
O=C(O)c1ccccc1O [Salicylic acid],29.3,1800 mg/L,–,–
